Consider 4 molecules from patent publication US20240115744A1, “FIBRIN-BINDING COMPOUNDS FOR IMAGING AND TREATMENT” (Collagen Medical, LLC, priority 2019, published 2024).

*1 amine or outer side, *2 acyl side, *3 side chain or, on linkers, in order; H or OH if unused. Where a SMILES comes first, the peptide text is derived from it. Bridges are numbered along the chain shown (N, C = ends). [ ]: non-standard residue; d: D form. The star is where a group is joined. NODAGA = O=C(O)CN1CCN(CC(=O)O)CCN(C(CCC(=O)*)C(=O)O)CC1; Tyr(3-Cl) = N[C@@H](Cc1ccc(O)c(Cl)c1)C(=O)O; Nicotinoyl(6-F) = O=C(c1ccc(F)nc1)*; X1 = O=C([C@@H]1CC(O)CN1[*:1])[*:2]; Hyp = O=C(O)[C@@H]1C[C@@H](O)CN1

For data set [1], the target named is T1, soluble fibrin fragment DD(E) (Homo sapiens, UniProt P02671+P02675+P02679, DEL433-453).
T1 construct: partial plasmin digestion of purified fibrin gel followed by size-exclusion chromatographic purification; made in house
In words: Fluorescence polarization DD(E) binding/displacement assay. To be noted: for Ki: displacement of TRITC-labelled peptide from DD(E), TBS·Ca with 2% DMSO, estimated uncertainty ±10%, read-out: Ki; for Kd: sub-micromolar affinity, read-out: affinity (Kd) to fibrin as assessed by DD(E) assay. As for the experimental part:
DD(E) was prepared using a published procedure which involved partial plasmin digestion of purified fibrin gel followed by size-exclusion chromatographic purification, and purity was assessed by SDS-PAGE. Peptides modified at the N-terminus with tetramethyl-rhodamine (TRITC) dye bind to DD(E). Direct fluorescent peptide binding to DD(E) was measured by a fluorescence polarization (FP) assay. The anisotropy (robs) of the fluorescently labeled peptides binding to DD(E) (0-20 μM) was measured in Tris buffered saline (50 mM Tris, 100 mM NaCl and 2 mM CaCl2) at fixed compound concentrations, and the data were fit to a single site model (Eq. 1) to obtain the dissociation constant (Kd) for the DD(E)·(fluorescent peptide) complex.
Displacement of the fluorescent peptide by non-fluorescent compound was measured to determine inhibition constants (Ki). In the presence of an inhibitor, an apparent dissociation constant for the fluorescent compound (Kd app) is determined using Eq. 2. The inhibition constant Ki is related to Kd app by Eq. 2, wherein Kd is the true dissociation constant of the fluorescent compound measured in the absence of inhibitor.
Non-labeled peptide binding to DD(E) was measured by a compound displacement assay, where a DD(E)/Fl·pep complex formed at fixed concentrations of DD(E) and Fl·pep was titrated with increasing concentrations of unlabeled compound. The compound was assayed by mixing DD(E) (4.0 μM, 10 μL) and TRITC (0.1 μM, 10 μL) with increasing concentrations of competing peptide (0.4-100 μM, 20 μL) in TBS·Ca with 2% DMSO in a final volume of 40 μL. Fluorescence polarization of the samples (10 μL, triplicate wells) in ascending concentrations was measured in a 384-well microplate (Corning flat black plate), using a Tecan Infinite 200 Pro fluorescence microplate reader equipped with fluorescence polarization filters, a 535 nm excitation filter and a 590 nm fluorescence emission filter. Average polarization (mP units) readings for each dilution of the compound of interest was converted to anisotropy (r) using Eq. 3.
The data defined a displacement curve (robs vs. [Peptide]), and the inhibitory binding constant, Ki, was determined by least squares fitting of the data (estimated uncertainty in Ki±10%). See Table 2 for the Ki values for the Compounds from Example 1.

The nature of data set [2]: Stability in rat plasma at 37° C. up to 4 h. The data set is classed as in vitro ADME. To be noted: after 4 h. As for the experimental part: The six compounds identified in Example 3 (Compounds 2, 3, 4, 5, 6, and 7) were assayed for stability in rat plasma at 37° C. for up to 4 h. Compounds were dissolved in DMSO to a make a stock solution (0.6 mM). Plasma (995 μL) was spiked with peptide stock solution (5 μL). Incubations were carried at a test compound concentration of 3 μM with a final DMSO concentration of […]. The spiked plasma samples were incubated at 37° C. for 4 h. Aliquots (300 μL) were removed at 0, 0.5, 1, 2 and 4 h and reactions were terminated by adding 600 μL of cold acetonitrile with 0.1% formic acid containing carbutamide (25 μg/mL) as an internal standard. Simultaneously, a plasma sample (995 μL) containing a mixture of benfluorex, propranolol and nortriptyline (40 μM in DMSO) control compounds was also incubated alongside each batch of test compounds and terminated similarly. […] Following centrifugation, the concentration of the compound of interest in the supernatant was quantified by LCMS. […] The peak area for each detected compound was measured to determine the % remaining of each compound and the result was compared with standards of pure compound and compound immediately isolated from plasma (t=0 sample). All assay samples were analyzed in triplicate. […]

Data set [3] is described as follows: Radio-HPLC analysis of blood for identification of metabolites. The class given is in vivo. The following applies: rat plasma 15 and 90 min after injection. As for the experimental part:
Adult male Wistar rats were anesthetized by isoflurane (1-2% in medical air). Body temperature was maintained at 37° C. using a thermo-regulated heating pad. The right femoral vein and artery were cannulated for compound injection and blood sampling, respectively. Endothelial injury was induced by crush injury to the right common carotid artery (1-2 cm proximal to the carotid bifurcation) by clamping the vessel with a hemostat for 5 minutes. Immediately following the surgical procedures, rats were placed in a micro-PET/CT scanner. Compound (200-600 μL) was injected, PET-CT images were acquired, and blood samples were drawn from the femoral artery prior to compound injection and at 2, 5, 10, 15, 30, 60, 90, 120 min post injection. Tissues were harvested at the end for ex vivo analyses.
Aliquots of the 15 and 90 min plasma samples were injected into a HPLC and fractions were collected each 30 seconds. The fractions counted were compared to pure compound injected into the same column in order to identify the number of metabolites and the fraction of intact compound circulating at each time point.

The target of data set [4] is T2, human fibrin (human, UniProt P02671 36-629; P02675 45-491; P02679 27-437, limits assumed).
T2 construct: also called clotted fibrin; immobilized fibrin
T2 sequence (looked up) 1: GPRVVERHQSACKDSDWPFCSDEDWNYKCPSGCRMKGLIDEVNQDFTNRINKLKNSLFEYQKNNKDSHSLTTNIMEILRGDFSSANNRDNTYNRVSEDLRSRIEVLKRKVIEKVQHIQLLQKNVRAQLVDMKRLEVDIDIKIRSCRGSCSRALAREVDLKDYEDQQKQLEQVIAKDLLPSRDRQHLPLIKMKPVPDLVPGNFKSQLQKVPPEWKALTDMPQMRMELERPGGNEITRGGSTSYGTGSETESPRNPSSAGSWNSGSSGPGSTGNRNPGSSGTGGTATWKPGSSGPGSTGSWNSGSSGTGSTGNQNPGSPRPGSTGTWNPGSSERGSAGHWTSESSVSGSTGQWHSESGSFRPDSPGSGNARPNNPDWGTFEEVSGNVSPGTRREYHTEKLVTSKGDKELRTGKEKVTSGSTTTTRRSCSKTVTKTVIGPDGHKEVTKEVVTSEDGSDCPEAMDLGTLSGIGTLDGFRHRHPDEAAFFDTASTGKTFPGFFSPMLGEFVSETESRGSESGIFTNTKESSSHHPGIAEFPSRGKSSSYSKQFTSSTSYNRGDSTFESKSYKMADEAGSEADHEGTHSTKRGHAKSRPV
T2 sequence (looked up) 2: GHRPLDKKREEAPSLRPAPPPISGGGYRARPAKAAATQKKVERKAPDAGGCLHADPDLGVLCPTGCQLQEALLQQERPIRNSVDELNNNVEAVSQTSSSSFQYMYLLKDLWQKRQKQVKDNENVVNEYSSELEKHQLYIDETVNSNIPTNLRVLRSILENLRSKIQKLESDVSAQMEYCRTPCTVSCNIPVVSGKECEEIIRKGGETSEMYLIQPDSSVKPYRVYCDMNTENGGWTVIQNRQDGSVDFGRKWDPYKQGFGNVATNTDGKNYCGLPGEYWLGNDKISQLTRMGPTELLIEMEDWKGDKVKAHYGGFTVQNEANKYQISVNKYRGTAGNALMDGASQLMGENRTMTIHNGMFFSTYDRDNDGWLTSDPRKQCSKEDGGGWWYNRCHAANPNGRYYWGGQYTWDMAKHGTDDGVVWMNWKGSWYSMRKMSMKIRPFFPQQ
T2 sequence (looked up) 3: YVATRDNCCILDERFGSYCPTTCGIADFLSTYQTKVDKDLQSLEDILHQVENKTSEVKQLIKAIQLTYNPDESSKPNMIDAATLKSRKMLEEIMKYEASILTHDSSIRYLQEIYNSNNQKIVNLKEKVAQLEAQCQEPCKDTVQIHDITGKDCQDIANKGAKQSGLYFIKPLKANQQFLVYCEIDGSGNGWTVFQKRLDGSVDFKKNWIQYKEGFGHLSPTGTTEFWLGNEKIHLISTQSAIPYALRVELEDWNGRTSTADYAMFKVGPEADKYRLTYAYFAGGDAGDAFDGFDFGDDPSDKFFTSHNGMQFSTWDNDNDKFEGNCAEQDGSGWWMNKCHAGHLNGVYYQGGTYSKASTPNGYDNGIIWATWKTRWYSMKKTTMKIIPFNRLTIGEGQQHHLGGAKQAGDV
In words: radioactivity plate assay on immobilized human fibrin, in TBS buffer. The protocol: Human fibrinogen (1 g) was dissolved in 30 mL of TBS buffer (50 mM Tris, 150 mM NaCl, 5 mM sodium citrate, pH 7.4) and dialyzed in a Slyde-a-Lyzer (20 000 MWCO, Cassette G2) at room temperature. After two changes of buffer, the fibrinogen was centrifuged (10 min, 2000×g) to remove undissolved material. Fibrinogen concentration was determined by measuring the absorbance at 280 nm. Stock fibrinogen solution concentration was 32.1 mg/mL. Fibrin plates with alternating rows of clotted fibrin and empty wells were prepared by polymerizing fibrinogen (100 μL; 2.5 mg/mL) with thrombin (1 U/mL) in TBS·citrate supplemented with 7 mM CaCl₂ in the wells of a 96 well polystyrene microtiter plate (Immulon-II®). […] Clottable protein in individual fibrinogen batches was determined by measuring 280 nm absorbance of the soluble fraction of the solution before and after thrombin treatment, and was generally ≥96% (Fibrin concentration, 7.56 μM).
An aliquot (100 μL) from a known activity (52 μCi in 10 mL TBS buffer) of Compound ¹⁸F-7 was added to a series of 12 known concentrations (0.01-50 μM) of cold Compound 7 (550 μL) in TBS buffer and mixed well to prepare 12 stock solutions. […] All aliquots from supernatants as well as an aliquot (90 μL) from each stock solution were weighed and activity of each was measured using a Cobra 5002 gamma counter. […]

Data set [5] addresses T2, human fibrin. In words: radioactivity plate assay on immobilized human fibrin, in human plasma.

In the case of `CC[C@H](C)[C@H](NC(=O)[C@H](Cc1ccc(O)cc1)NC(=O)[C@@H]1CSSC[C@H](NC(=O)[C@@H](CCC(=O)O)NC(=O)[C@@H](Cc2ccc(O)cc2)NC(=O)c2ccc(F)nc2)C(=O)N2C[C@H](O)C[C@H]2C(=O)N[C@@H](Cc2ccc(O)c(Cl)c2)C(=O)NCC(=O)N[C@@H](CC(C)C)C(=O)N1)C(=O)N[C@@H](CCC(N)=O)C(N)=O` [Compound 6, -y-e-C-Hyp-Y(3-Cl)-G-L-C-Y-I-Q-] ({Nicotinoyl(6-F)}-[dY][dE]C[Hyp][Tyr(3-Cl)]GLCYIQ-NH2; disulfide 3-8), in data set [1], the Ki was 340 nM and the Kd was below 600 nM. The “stability in rat plasma” value in data set [2] is “greatest stability”.
Taken in the same sequence, the figures for `CC[C@H](C)[C@H](NC(=O)[C@H](Cc1ccc(O)cc1)NC(=O)[C@@H]1CSSC[C@H](NC(=O)[C@@H](CCC(=O)O)NC(=O)[C@H](Cc2ccc(O)cc2)NC(=O)c2ccc(F)nc2)C(=O)N2C[C@H](O)C[C@H]2C(=O)N[C@@H](Cc2ccc(O)c(Cl)c2)C(=O)NCC(=O)N[C@@H](CC(C)C)C(=O)N1)C(=O)N[C@@H](CCC(N)=O)C(N)=O` [Compound 7, -Y-e-C-Hyp-Y(3-Cl)-G-L-C-Y-I-Q-] ({Nicotinoyl(6-F)}-Y[dE]C[Hyp][Tyr(3-Cl)]GLCYIQ-NH2; disulfide 3-8) were 580 nM, below 600 nM and “greatest stability”.
Turning to `CC[C@H](C)[C@H](NC(=O)[C@H](Cc1ccc(O)cc1)NC(=O)[C@@H]1CSSC[C@H](NC(=O)[C@@H](CCC(=O)O)NC(=O)[C@H](Cc2ccc(O)cc2)NC(=O)CCC(C(=O)O)N2CCN(CC(=O)O)CCN(CC(=O)O)CC2)C(=O)N2CC(O)C[C@H]2C(=O)N[C@@H](Cc2ccc(O)c(Cl)c2)C(=O)NCC(=O)N[C@@H](CC(C)C)C(=O)N1)C(=O)N[C@@H](CCC(N)=O)C(N)=O` (stereo partly drawn) [Compound ^68Ga-16, metal not drawn] ({NODAGA}-Y[dE]C[X1][Tyr(3-Cl)]GLCYIQ-NH2; disulfide 3-8), in data set [3], the “metabolites / intact compound in blood” value is recorded as “rapidly formed metabolites”.

B1: Compound 18F-7 (peptide)
peptide: {6‑(18F)fluoronicotinoyl}-Y[dE]C[Hyp][Tyr(3-Cl)]GLCYIQ-NH2
modifications: disulfide 3-8
notes: In the plate assay the tracer was mixed with 0.01-50 µM cold Compound 7; also called the fluorine-18 form of Compound 7
On to B1, for which the Kd came out at 1600 nM in the data set with human fibrin [4] and 1800 nM with human fibrin [5].
